Among the data in patent US20250002507A1, “7,8-DIHYDRO-5H-1,6-NAPHTHYRIDINE DERIVATIVES AS POSITIVE ALLOSTERIC MODULATORS OF THE MUSCARINIC ACETYLCHOLINE RECEPTOR M4 FOR TREATING NEUROLOGICAL AND PSYCHIATRIC DISORDERS” (Vanderbilt University, priority 2021, published 2025) are Emax and EC50 values, retold here.

Read-outs that look alike come from different tables or passages of the source.

This assay addresses T1, Human M4 (Homo sapiens, UniProt P08173).
T1 construct: expressed in transfected cells
T1 sequence (P08173 1-479): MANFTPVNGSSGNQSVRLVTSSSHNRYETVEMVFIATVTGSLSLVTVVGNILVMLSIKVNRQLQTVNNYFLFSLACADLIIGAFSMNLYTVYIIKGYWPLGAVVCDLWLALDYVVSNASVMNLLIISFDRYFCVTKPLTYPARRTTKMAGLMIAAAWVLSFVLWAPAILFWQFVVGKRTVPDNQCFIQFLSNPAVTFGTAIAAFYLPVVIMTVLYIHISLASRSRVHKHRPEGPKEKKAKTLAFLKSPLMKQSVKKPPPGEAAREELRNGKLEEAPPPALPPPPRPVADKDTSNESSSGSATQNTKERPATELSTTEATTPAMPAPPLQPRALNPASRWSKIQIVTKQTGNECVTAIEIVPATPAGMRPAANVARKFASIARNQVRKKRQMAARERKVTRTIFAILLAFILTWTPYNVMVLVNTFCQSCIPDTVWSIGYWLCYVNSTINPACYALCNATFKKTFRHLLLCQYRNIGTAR
In words: mAChR M4 cell-based functional assay (calcium flux, potentiation of EC20 acetylcholine response), hM4-Gqi5 CHO-K1 cells. Conditions: for EC50: calcium flux, read-out: Human M4 EC50; for Emax at 30 µM: % ACh maximum at 30 μM. The gist of the method: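 Positive allosteric modulation was scored as a concentration-dependent rise in the response to an EC20 dose of acetylcholine, added 144 s after the compound. Human M4-Gqi5 CHO-K1 cells carried Fluo-4 dye, and compounds ran as 11-point, 3-fold dilution series. EC50 and Emax came from four-parameter logistic fits of the FDSS fluorescence-ratio traces.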
Background: Calcium assays in cells follow changes in intracellular calcium, usually with a dye or a luminescent sensor.

The mark [1] stands for this setting: hM4-Gqi5 CHO-K1 cells, PAM of EC20 acetylcholine.
[2] abbreviates: CHO-K1, human M4, read-out: Emax.
The mark [3] stands for this setting: CHO-K1, Table 3, Human M4, read-out: Emax (% ACh maximum at 30 μM).
Where [4] appears, read: Table 3, potentiation of EC20 acetylcholine response, CHO-K1 cells.

Consider `Cc1ccc2c(n1)CCN(c1nn3cnnc3c(C)c1C)C2` [Compound 128, 6-(7,8-dimethyl-[1,2,4]triazolo[4,3-b]pyridazin-6-yl)-2-methyl-7,8-dihydro-5H-1,6-naphthyridine], for which, for the setting “CHO-K1”, the maximum response (Emax) (in general, the size of the effect at its maximum, as opposed to the concentration needed) is 103%. Further, under setting [1], the EC50 (as a rule, the concentration needed to bring the measured effect to its halfway point) was determined as 380 nM.
For the compound `Cc1c(N2CCc3ncc(-c4cnn(CC5CC5)c4)cc3C2)nn2cnnc2c1C` [Compound 21, 3-[1-(cyclopropylmethyl)pyrazol-4-yl]-6-(7,8-dimethyl-[1,2,4]triazolo[4,3-b]pyridazin-6-yl)-7,8-dihydro-5H-1,6-naphthyridine], under setting [2], the Emax at 30 µM was 82%. For the same compound, under setting [1], the concentration for a half-maximal effect (EC50) was 162 nM.
`Cc1c(N2CCc3ncc(OCC(F)(F)F)cc3C2)nn2cnnc2c1C` [Compound 305, 6-(7,8-dimethyl-[1,2,4]triazolo[4,3-b]pyridazin-6-yl)-3-(2,2,2-trifluoroethoxy)-5,6,7,8-tetrahydro-1,6-naphthyridine]: for the setting “CHO-K1, Table 4, Human M4, read-out: Emax (% ACh maximum at 30 μM)”, the Emax at 30 µM worked out at 112%. Also, the EC50 (Table 4, potentiation of EC20 acetylcholine response, CHO-K1 cells) came out at 1870 nM.
Regarding `COc1nc(Cl)ccc1-c1cnc2c(c1)CN(c1nn3cnnc3c(C)c1C)CC2` [Compound 174, 3-(6-chloro-2-methoxypyridin-3-yl)-6-(7,8-dimethyl-[1,2,4]triazolo[4,3-b]pyridazin-6-yl)-5,6,7,8-tetrahydro-1,6-naphthyridine], the Emax at 30 µM under setting [3] was determined as 85%. Moreover, the 50% effective concentration (EC50) under setting [4] is 1070 nM.
For `Cc1cc2nncn2nc1N1CCc2ncc(Oc3cccc(F)c3F)cc2C1` [Compound 294, 3-(2,3-difluorophenoxy)-6-(7-methyl-[1,2,4]triazolo[4,3-b]pyridazin-6-yl)-5,6,7,8-tetrahydro-1,6-naphthyridine], under setting [3], the Emax at 30 µM amounted to 103%. The EC50 under setting [4] amounted to 101 nM.
`Cc1c(N2CCc3ncc(-c4cncs4)cc3C2)nn2cnnc2c1C` [Compound 9, 5-[6-(7,8-dimethyl-[1,2,4]triazolo[4,3-b]pyridazin-6-yl)-7,8-dihydro-5H-1,6-naphthyridin-3-yl]thiazole]: the Emax at 30 µM under setting [2] was determined as 79%. For the same compound, under setting [1], the EC50 turned out to be 94.3 nM.
For the compound `CCCCn1nc(C)cc1Nc1cnc2c(c1)CN(c1nn3cnnc3c(C)c1C)CC2` [Compound 213, N-(1-butyl-3-methyl-1H-pyrazol-5-yl)-6-(7,8-dimethyl-[1,2,4]triazolo[4,3-b]pyridazin-6-yl)-5,6,7,8-tetrahydro-1,6-naphthyridin-3-amine], under setting [3], the Emax at 30 µM worked out at 52%. The EC50 under setting [4] amounted to 2480 nM.
For `Cc1c(N2CCc3ncc(C(=O)N4CCC(O)CC4C)cc3C2)nn2cnnc2c1C` (stereo not shown) [Compound 119, [6-(7,8-dimethyl-[1,2,4]triazolo[4,3-b]pyridazin-6-yl)-7,8-dihydro-5H-1,6-naphthyridin-3-yl]-(4-hydroxy-2-methyl-1-piperidyl)methanone], under setting [2], the Emax at 30 µM was determined as 73%.
Take `Cc1cnn(C)c1-c1cnc2c(c1)CN(c1nn3c(C(F)(F)F)nnc3c(C)c1C)CC2` [Compound 236, 3-(1,4-dimethyl-1H-pyrazol-5-yl)-6-(7,8-dimethyl-3-(trifluoromethyl)-[1,2,4]triazolo[4,3-b]pyridazin-6-yl)-5,6,7,8-tetrahydro-1,6-naphthyridine]: the Emax at 30 µM under setting [3] worked out at 65%. The EC50 under setting [4] came to 165 nM.
On to `Cc1nn(C)cc1-c1cnc2c(c1)CN(c1nn3cnnc3c(C)c1C)CC2` [Compound 22, 3-(1,3-dimethylpyrazol-4-yl)-6-(7,8-dimethyl-[1,2,4]triazolo[4,3-b]pyridazin-6-yl)-7,8-dihydro-5H-1,6-naphthyridine], for which the Emax at 30 µM under setting [2] turned out to be 93%. Further, under setting [1], the half-maximal effective concentration (EC50) stood at 146 nM.
As for `Cc1cc(Nc2cnc3c(c2)CN(c2nn4cnnc4c(C)c2C)CC3)n(C(C)C)n1` [Compound 214, 6-(7,8-dimethyl-[1,2,4]triazolo[4,3-b]pyridazin-6-yl)-N-(1-isopropyl-3-methyl-1H-pyrazol-5-yl)-5,6,7,8-tetrahydro-1,6-naphthyridin-3-amine], the Emax at 30 µM under setting [3] is 45%. Also, the EC50 under setting [4] stood at 5500 nM.
Turning to `CCn1cc(-c2cnc3c(c2)CN(c2nn4cnnc4c(C)c2C)CC3)cn1` [Compound 100, 6-(7,8-dimethyl-[1,2,4]triazolo[4,3-b]pyridazin-6-yl)-3-(1-ethylpyrazol-4-yl)-7,8-dihydro-5H-1,6-naphthyridine], the Emax at 30 µM under setting [2] came to 101%. Besides, the EC50 under setting [1] is 249 nM.
As to `CCC(C)(O)c1cnc2c(c1)CN(c1nn3cnnc3c(C)c1C)CC2` (stereo not shown) [Compound 165, 2-(6-(7,8-dimethyl-[1,2,4]triazolo[4,3-b]pyridazin-6-yl)-5,6,7,8-tetrahydro-1,6-naphthyridin-3-yl)butan-2-ol], under setting [3], the Emax at 30 µM turned out to be 102%. Further, under setting [4], the half-maximal effective concentration (EC50) is 1870 nM.
In the same order, the values of `Cc1c(N2CCc3ncc(N4CCOc5ccccc54)cc3C2)nn2c(C(F)(F)F)nnc2c1C` [Compound 230, 4-(6-(7,8-dimethyl-3-(trifluoromethyl)-[1,2,4]triazolo[4,3-b]pyridazin-6-yl)-5,6,7,8-tetrahydro-1,6-naphthyridin-3-yl)-3,4-dihydro-2H-benzo[b][1,4]oxazine] are 83% and 398 nM.
With `Cc1c(N2CCc3ncc(C(=O)N4CCCC4)cc3C2)nn2cnnc2c1C` [Compound 56, [6-(7,8-dimethyl-[1,2,4]triazolo[4,3-b]pyridazin-6-yl)-7,8-dihydro-5H-1,6-naphthyridin-3-yl]-pyrrolidin-1-yl-methanone], under setting [2], the maximal response (Emax) at 30 µM stood at 91%.
Turning to `Cc1c(N2CCc3ncc(NCC4CCCO4)cc3C2)nn2cnnc2c1C` (stereo not shown) [Compound 26, 6-(7,8-dimethyl-[1,2,4]triazolo[4,3-b]pyridazin-6-yl)-N-(tetrahydrofuran-2-ylmethyl)-7,8-dihydro-5H-1,6-naphthyridin-3-amine], the Emax at 30 µM under setting [2] was determined as 75%. Besides, the half-maximal effective concentration (EC50) under setting [1] stood at 737 nM.
For `Cc1cc2nccn2nc1N1CCc2ncc(-c3ccn(C)n3)cc2C1` [Compound 111, 6-(7-methylimidazo[1,2-b]pyridazin-6-yl)-3-(1-methylpyrazol-3-yl)-7,8-dihydro-5H-1,6-naphthyridine], the maximal effect (Emax) at 30 µM under setting [2] came to 69%. The concentration giving a half-maximal response (EC50) under setting [1] was 1180 nM.
As to `COc1ccc(Nc2cnc3c(c2)CN(c2nn4cnnc4c(C)c2C)CC3)c(F)c1F` [Compound 27, N-(2,3-difluoro-4-methoxy-phenyl)-6-(7,8-dimethyl-[1,2,4]triazolo[4,3-b]pyridazin-6-yl)-7,8-dihydro-5H-1,6-naphthyridin-3-amine], under setting [2], the Emax at 30 µM turned out to be 77%. The EC50 under setting [1] was 597 nM.
Regarding `Cc1c(N2CCc3ncc(Nc4c(F)ccc(Cl)c4F)cc3C2)nn2cnnc2c1C` [Compound 29, N-(3-chloro-2,6-difluoro-phenyl)-6-(7,8-dimethyl-[1,2,4]triazolo[4,3-b]pyridazin-6-yl)-7,8-dihydro-5H-1,6-naphthyridin-3-amine], the Emax at 30 µM under setting [2] turned out to be 87%. Under setting [1], the EC50 was 443 nM.
Consider `Cc1c(N2CCc3ncc(Nc4cc(F)cc(F)c4F)cc3C2)nn2c(C(F)(F)F)nnc2c1C` [Compound 91, 6-[7,8-dimethyl-3-(trifluoromethyl)-[1,2,4]triazolo[4,3-b]pyridazin-6-yl]-N-(2,3,5-trifluorophenyl)-7,8-dihydro-5H-1,6-naphthyridin-3-amine], for which the maximal effect (Emax) at 30 µM under setting [2] is 106%. Moreover, under setting [1], the EC50 turned out to be 1790 nM.
Regarding `Cc1c(N2CCc3ncc(NC(=O)C(C)C)cc3C2)nn2cnnc2c1C` [Compound 154, N-(6-(7,8-dimethyl-[1,2,4]triazolo[4,3-b]pyridazin-6-yl)-5,6,7,8-tetrahydro-1,6-naphthyridin-3-yl)isobutyramide], the Emax at 30 µM under setting [3] was 79%. The 50% effective concentration (EC50) under setting [4] is 3630 nM.
Consider `Cc1c(N2CCc3ncc(Oc4cc(F)ccc4F)cc3C2)nn2c(C(F)(F)F)nnc2c1C` [Compound 301, 3-(2,5-difluorophenoxy)-6-(7,8-dimethyl-3-(trifluoromethyl)-[1,2,4]triazolo[4,3-b]pyridazin-6-yl)-5,6,7,8-tetrahydro-1,6-naphthyridine], for which the Emax at 30 µM under setting [3] came out at 85%. In addition, under setting [4], the EC50 was 820 nM.
`[2H]c1nnc2c(C)c(C)c(N3CCc4ncc(-c5c(C)noc5C)cc4C3)nn12` [Compound 74, 4-[6-(3-deuterio-7,8-dimethyl-[1,2,4]triazolo[4,3-b]pyridazin-6-yl)-7,8-dihydro-5H-1,6-naphthyridin-3-yl]-3,5-dimethyl-isoxazole]: the maximal effect (Emax) at 30 µM under setting [2] came out at 103%. For the same compound, the EC50 under setting [1] was determined as 108 nM.
Turning to `COc1ccc(Oc2cnc3c(c2)CN(c2nn4cnnc4c(C)c2C)CC3)cc1` [Compound 12, 6-(7,8-Dimethyl-[1,2,4]triazolo[4,3-b]pyridazin-6-yl)-3-(4-methoxyphenoxy)-7,8-dihydro-5H-1,6-naphthyridine], under setting [2], the maximum response (Emax) at 30 µM is 76%. In addition, under setting [1], the EC50 stood at 191 nM.
